Experiments:
CB2 receptors [1] = molecular target: T1, CB2 receptors (Homo sapiens, UniProt P34972); experiment: Signal transduction in CHO-CB2-CREluc cells (luciferase; forskolin, AM630); settings: for Effect on CB2 receptor (in words): text statement
CB2 receptors [2] = molecular target: T1, CB2 receptors; experiment: Competition binding study with [3H]-CP55940 in CB2 receptor transfected cell membranes; design: purchased RBXCB2M400UA; host or cells: human cells (transfected); settings: for Ki: dissociation constant, mean +/- SEM, competition with [3H]-CP55940; for Ki (CB1): Ki (CB2) Selectivity for CB2 in comparison to CB1 (rounded): ratio of Ki values; for CB2 (% binding): screening with a single high dose, displacement of [3H]-CP55940
CB1 receptors [3] = molecular target: T2, CB1 receptors (Homo sapiens, UniProt P21554); experiment: biochemical; type: binding; design: purchased RBHCB1M400UA; host or cells: human cells (transfected); settings: for Ki: dissociation constant, mean +/- SEM, competition with [3H]-CP55940; for CB1 (% binding): screening with a single high dose, displacement of [3H]-CP55940
CB1 receptors [4] = molecular target: T2, CB1 receptors; experiment: Signal transduction in CHO-CB1-CREluc cells (luciferase; agonism, and antagonism against WIN); settings: for Effect on CB1 receptor (in words): text statement
NFAT = experiment: Jurkat T cell model, NFAT dependent luciferase activation by PMA plus ionomycin; type: cell-based; settings: luciferase construct
Protocol: (§1) Substances according to the invention were investigated in an accepted Jurkat T cell model. The underlying mechanism is based on the fact that the transcriptional activity of lymphokines, such as e.g. the one of IL-2, is based on the coordinated activation of different transcription factors, such as e.g. NFAT and NF-κB. The effect of the substances according to the invention on said factors was evaluated in-vitro with the aid of a luciferase-coupled construct (KBF-luc). Thereby, an activation of transiently transfected cells (Jurkat T cells) through PMA (plus ionomycin in case of NFAT activation), driven by a NF-κB or NFAT dependent promoter, leads to a strong induction of luciferase gene expression. The inhibition of the luciferase activity was measured as a function of the dose rate of the substance according to the invention. A knowledgeable person skilled in the art can easily follow such procedure from the literature (e.g. in Yuan et al. (2002), Sancho et al. (2003), Do et al. (2004) and Cencioni et al. (2010)).

NF-κB = experiment: Jurkat T cell model, NF-κB dependent luciferase activation by PMA; type: cell-based; settings: luciferase construct
Protocol: as §1

[5] = listed as 2-Hydroxyethyl cannabidiolate
[6] = listed as Glyceryl cannabidiolate
[7] = listed as N-Methyl-sulfonyl cannabidiolate

T2 sequence (P21554 whole entry): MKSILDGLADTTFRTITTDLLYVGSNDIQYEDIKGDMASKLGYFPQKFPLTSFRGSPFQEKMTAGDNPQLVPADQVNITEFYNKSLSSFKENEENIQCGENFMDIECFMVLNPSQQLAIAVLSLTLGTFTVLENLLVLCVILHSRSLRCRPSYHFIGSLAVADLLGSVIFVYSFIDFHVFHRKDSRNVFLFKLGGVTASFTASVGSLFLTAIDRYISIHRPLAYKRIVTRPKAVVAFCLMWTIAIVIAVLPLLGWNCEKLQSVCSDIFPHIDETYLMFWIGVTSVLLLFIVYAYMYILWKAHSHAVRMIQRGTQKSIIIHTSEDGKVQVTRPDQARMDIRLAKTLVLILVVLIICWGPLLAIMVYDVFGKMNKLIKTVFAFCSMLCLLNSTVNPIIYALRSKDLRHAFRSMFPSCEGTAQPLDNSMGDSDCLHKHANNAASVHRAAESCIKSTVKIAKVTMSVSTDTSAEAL
T1 sequence (P34972 whole entry): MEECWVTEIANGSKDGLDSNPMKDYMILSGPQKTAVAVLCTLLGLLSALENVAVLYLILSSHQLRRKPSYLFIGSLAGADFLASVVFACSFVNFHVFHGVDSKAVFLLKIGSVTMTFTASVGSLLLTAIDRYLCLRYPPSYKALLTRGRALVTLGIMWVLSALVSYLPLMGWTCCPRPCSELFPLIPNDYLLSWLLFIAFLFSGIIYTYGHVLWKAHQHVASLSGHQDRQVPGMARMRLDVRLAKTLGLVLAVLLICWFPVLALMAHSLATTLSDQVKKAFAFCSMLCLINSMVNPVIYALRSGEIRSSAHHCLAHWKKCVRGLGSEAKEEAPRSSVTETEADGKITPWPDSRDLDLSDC

C=C(C)[C@@H]1CCC(C)=CC1c1c(O)cc(CCCCC)c(C(=O)OCCCCCC)c1O (some centres unmarked) [XI, Hexyl cannabidiolate]
Effect on CB2 receptor (in words) (CB2 receptors [1]): CB2 agonists | Ki (CB2 receptors [2]): 510 ± 29 nM | Ki (CB1): Ki (CB2) Selectivity for CB2 in comparison to CB1 (rounded) (CB2 receptors [2]): 1 | CB2 (% binding) (CB2 receptors [2]): 97.2 ± 3.4% | Ki (CB1 receptors [3]): 538 ± 53.9 nM | CB1 (% binding) (CB1 receptors [3]): 92.2 ± 1.7% | Effect on CB1 receptor (in words) (CB1 receptors [4]): CB1 agonists

C=C(C)C1CCC(C)=CC1c1c(O)cc(CCCCC)c(C(=O)OCC(O)CCC)c1O (centres unmarked) [2-hydroxypentyl cannabidiolate]
Effect on CB2 receptor (in words) (CB2 receptors [1]): strong activation | Inhibition of NFAT dependent activation of T cells (NFAT): inhibition | Effect on CB1 receptor (in words) (CB1 receptors [4]): inhibit

C=C(C)[C@@H]1CCC(C)=C[C@H]1c1c(O)cc(CCCCC)c(C(=O)OCCO)c1O [Compound III, 2-hydroxyethyl cannabidiolate]
Agonism and antagonism at CB2 (CB2 receptors [1]): + | Effect on CB2 receptor (in words) (CB2 receptors [1]): CB2 agonists | Effect on CB2 receptor (in words) (CB2 receptors [1]; [5]): strong activation | Ki (CB2 receptors [2]): 375 ± 47.7 nM | Ki (CB1): Ki (CB2) Selectivity for CB2 in comparison to CB1 (rounded) (CB2 receptors [2]): 10.4 | CB2 (% binding) (CB2 receptors [2]): 90.3 ± 2.4% | Inhibition of NFAT dependent activation of T cells (NFAT): inhibition | Ki (CB1 receptors [3]): 3920 nM | CB1 (% binding) (CB1 receptors [3]): 77.3 ± 6.5% | Agonism and antagonism at CB1 (CB1 receptors [4]): − | Effect on CB1 receptor (in words) (CB1 receptors [4]): CB1 antagonists | Effect on CB1 receptor (in words) (CB1 receptors [4]; [5]): inhibit

C=C(C)[C@@H]1CCC(C)=C[C@H]1c1c(O)cc(CCCCC)c(C(=O)OCC(O)CCC)c1O (some centres unmarked) [Compound V, 2-hydroxypentyl cannabidiolate]
Agonism and antagonism at CB2 (CB2 receptors [1]): + | Effect on CB2 receptor (in words) (CB2 receptors [1]): CB2 agonists | Ki (CB1 receptors [3]): 538 ± 53.9 nM | CB1 (% binding) (CB1 receptors [3]): 82.0 ± 8.0% | Agonism and antagonism at CB1 (CB1 receptors [4]): − | Effect on CB1 receptor (in words) (CB1 receptors [4]): CB1 antagonists

C=C(C)[C@@H]1CCC(C)=CC1c1c(O)cc(CCCCC)c(C(=O)OC2CCCCC2)c1O (some centres unmarked) [XII, Cyclohexyl cannabidiolate]
Agonism and antagonism at CB2 (CB2 receptors [1]): 0 | Ki (CB2 receptors [2]): 67 ± 4 nM | Ki (CB1): Ki (CB2) Selectivity for CB2 in comparison to CB1 (rounded) (CB2 receptors [2]): 37 | CB2 (% binding) (CB2 receptors [2]): 99.2 ± 2.3% | Ki (CB1 receptors [3]): 538 ± 53.9 nM | CB1 (% binding) (CB1 receptors [3]): 81.5 ± 6.8% | Agonism and antagonism at CB1 (CB1 receptors [4]): − | Effect on CB1 receptor (in words) (CB1 receptors [4]): CB1 antagonists | Effect on CB1 receptor (in words) (CB1 receptors [4]; listed as cyclohexyl cannabidiolate): antagonistic effect

C=C(C)C1CCC(C)=CC1c1c(O)cc(CCCCC)c(C(=O)OCCCCCC)c1O (centres unmarked) [Hexyl cannabidiolate]
Agonism and antagonism at CB2 (CB2 receptors [1]): + | Effect on CB2 receptor (in words) (CB2 receptors [1]): antagonism | Agonism and antagonism at CB1 (CB1 receptors [4]): + | Effect on CB1 receptor (in words) (CB1 receptors [4]): antagonism

C=C(C)[C@@H]1CCC(C)=C[C@H]1c1c(O)cc(CCCCC)c(C(=O)OCC(O)CO)c1O (some centres unmarked) [Compound IV, Glyceryl cannabidiolate]
Agonism and antagonism at CB2 (CB2 receptors [1]): + | Effect on CB2 receptor (in words) (CB2 receptors [1]): CB2 agonists | Effect on CB2 receptor (in words) (CB2 receptors [1]; [6]): strong activation | Ki (CB2 receptors [2]): 277 ± 78.7 nM | Ki (CB1): Ki (CB2) Selectivity for CB2 in comparison to CB1 (rounded) (CB2 receptors [2]): 7.8 | CB2 (% binding) (CB2 receptors [2]): 101.6 ± 0.5% | Inhibition of NFAT dependent activation of T cells (NFAT): inhibition | Ki (CB1 receptors [3]): 2170 nM | CB1 (% binding) (CB1 receptors [3]): 90.2 ± 3.8% | Agonism and antagonism at CB1 (CB1 receptors [4]): + | Effect on CB1 receptor (in words) (CB1 receptors [4]): CB1 agonists | Effect on CB1 receptor (in words) (CB1 receptors [4]; [6]): weak activation

C=C(C)[C@@H]1CCC(C)=CC1c1c(O)cc(CCCCC)c(C(=O)OCCNS(C)(=O)=O)c1O (some centres unmarked) [XIII, N-Methyl-sulfonyl cannabidiolate]
Agonism and antagonism at CB2 (CB2 receptors [1]): + | Effect on CB2 receptor (in words) (CB2 receptors [1]): CB2 agonists | Effect on CB2 receptor (in words) (CB2 receptors [1]; [7]): agonistic effect | Binding to CB2 receptors (in words) (CB2 receptors [2]): high binding affinity | Ki (CB2 receptors [2]): 0.012 ± 0.001 nM | Ki (CB1): Ki (CB2) Selectivity for CB2 in comparison to CB1 (rounded) (CB2 receptors [2]): 22.5 | CB2 (% binding) (CB2 receptors [2]): 104.9 ± 4.8% | Inhibition of NFAT dependent activation of T cells (NFAT): strong inhibition | Binding to CB1 receptors (in words) (CB1 receptors [3]): high binding affinity | Ki (CB1 receptors [3]): 538 ± 53.9 nM | CB1 (% binding) (CB1 receptors [3]): 98.9 ± 7.8% | Inhibition of NF-κB dependent activation of T cells (NF-κB): strong inhibition | Agonism and antagonism at CB1 (CB1 receptors [4]): − | Effect on CB1 receptor (in words) (CB1 receptors [4]): CB1 antagonists | Effect on CB1 receptor (in words) (CB1 receptors [4]; [7]): antagonistic effect

Reference: patent US9670133B2, “Mixtures of cannabinoid compounds, and production and use thereof” (priority 2013, dated 2017)
